US10653672B2, “Myogenesis promotor, muscle atrophy inhibitor, medical composition and TAZ activator” (National University Corporation Tokyo Medical and Dental …, priority 2014, dated 2020)
“And” between values parts separate entries of the source, which are not always exact repeats. Equal values may be shown once.

Assays:
C2C12 cells = test: Antagonistic action on myostatin in C2C12 cells; assay type: cell-based, mouse; conditions: differentiation condition 72 hours
Description: Myostatin is a protein and a member of a transforming growth factor […] superfamily, and inhibits muscle growth and differentiation. Myostatin binds activin type IIB receptor and triggers SMAD2/3-dependent signaling. Since TAZ interacts with SMAD2/3, effects of IBS008738 on the signaling of myostatin was examined (FIGS. 8A to 8C). The line in the figures is 100 μm. The line and the error bar indicate the average value and the standard error, *p<0.05, […], ***p<0.001, ns refers to not significant.
(1) C2C12 cells in which TAZ was knocked down (si TAZ) and C2C12 cells in which TAZ was not knocked down (si Cont) were grown to confluence, respectively, A stock solution of 100 μg/mL myostatin in 4 mM […] with 0.1% (w/v) BSA and a stock solution of 10 mM IBS008738 in DMSO were prepared. The cells were cultured at differentiation condition for 72 hours in a 1 mL medium with 1 μL DMSO, a 1 mL medium with 1 μL myostatin stock solution, and a 1 mL medium with 1 μL IBS008738 stock solution. As a result, muscle formation of the C2C12 cells was inhibited in the case with only myostatin, but muscle formation of the C2C12 cells was recovered in the case with myostatin and IBS008738.
(2) The fusion index of C2C12 cells in which TAZ was knocked down (si TAZ) and C2C12 cells in which TAZ was not knocked down (si Cont), after being cultured under differentiation condition for 72 hours, was analyzed.
Expression of MHC of C2C12 cells in which TAZ was knocked down (si TAZ) and C2C12 cells in which TAZ was not knocked down (si Cont), after being cultured under differentiation condition for 72 hours, was analyzed by immunoblotting. As a result, expression of MHC decreased in the case with only myostatin, whereas it recovered in the case with myostatin and IBS008738 (see FIG. 8C).

Balb/c ByJ mice = test: Suppression of dexamethasone-induced muscle atrophy; assay type: in vivo, mouse; conditions: 20 μL of 25 mg/mL stock intraperitoneally each day for a week; day 14
Experimental: (1) A 25 mg/mL dexamethasone stock solution in DMSO was prepared. Three Balb/c ByJ mice (6 week, female) were intraperitoneally injected with 20 μL of the dexamethasone stock solution, each day for a week. As a control group, three other individuals were injected with 20 μL of DMSO. On day 9, 11 and 13, each group of the mice was injected with a solution prepared by dissolving 0.3 μL of 10 mM IBS008738 stock solution in 100 μL PBS, on one hindlimb muscle, and with 100 μL PBS on the other hindlimb muscle. The mice were sacrificed at day 14, and the muscle tissues were fixed and stained with hematoxylin and eosin (see FIG. 8D). It was observed that the muscle fibers of the mice administered with dexamethasone were shrinked.
(2) The cross section of the muscle fibers of the individual intraperitoneally injected with dexamethasone was stained with an anti-laminin antibody and observed. […] The cross-section area of muscle fibers (500 per individual) of the three mice was measured. As a result, the area of the individual injected with IBS008738 was greater than the area of the individual injected with DMSO (see FIG. 9F). The cross-section area of muscle fibers was analyzed with Image J software.

Row | Compound | muscle formation of the C2C12 cells (C2C12 cells; TAZ not knocked down, 1 μL myostatin stock (100 μg/mL) and/or 1 μL 10 mM IBS008738 stock in 1 mL medium) | expression of MHC (C2C12 cells; immunoblotting) | Fusion index (C2C12 cells; siCont C2C12 cells) | Fusion index (C2C12 cells; siTAZ C2C12 cells) | muscle fibers of the mice administered with dexamethasone (Balb/c ByJ mice)
1 | myostatin [MSTN] | inhibited | decreased | 0.06 and 0.05 | 0.02 and 0.03 and 0.04 | 
2 | C[C@@H]1C[C@H]2[C@@H]3CCC4=CC(=O)C=C[C@]4(C)[C@@]3(F)[C@@H](O)C[C@]2(C)[C@@]1(O)C(=O)CO [dexamethasone, reference compound] |  |  |  |  | shrinked
